From patent US20060222628A1, “Gallium complexes of 3-hydroxy-4-pyrones to treat infection by intracellular prokaryotes and DNA viruses” (priority 1999, published 2006)

Key:
EBV and KSV = assay: Clinical evaluation for prevention of EBV or KSV neoplasms in HIV patients: neoplasia; assay type: in vivo, human
Description: Both EBV and KSV cause neoplasms, with both causing lymphomas and KSV ([…]) along with HHV-7, possibly in concert with HHV-6 associated with the pathogenesis of Kaposi Sarcoma. Most humans carry all these viruses. A HIV population could be studied without determining whether any of the patients are seropositive or culturable for these pathogens, or preferably a group of HIV patients who are seropositive or culture positive for both EBV and KSV can be identified. Applying the methods of Example 12 with additional guidance from Schneider et al. (2000), supra, yields a protocol for evaluating the contribution of the gallium compounds of the invention in prevention of opportunistic neoplasms caused by the herpes viruses with combination antiviral therapy.
Using essentially the same protocol as Example 12, but with an HIV infected patient population that is seropositive or culture positive for both EBV and KSV and substituting the specific assays such as PCR, serodetection for the EBV and KSV viruses, the role of gallium as a combination agent in preventing the neoplasms caused by members of the herpesvirus family in HIV disease can be evaluated. The subpopulations are divided according to CD4 counts as in Example 12. Each subpopulation's first group is treated in addition to the foscarnet with interferon-alpha. Each subpopulation's second group is treated in addition to the ganciclovir with the same doses of foscarnet and interferon-alpha as the first group. The dosages of the foscarnet and are as in Example 12, as are the dosages for the gallium maltolate for each groups four subgroups. Thus within each subpopulation, gallium plus foscarnet plus traditional HAART is compared to gallium plus foscarnet plus traditional HAART plus ganciclovir. An all oral regimen would be preferable but success would be unlikely. The dosage level for the interferon-alpha used is that used for treating Kaposi Sarcoma (20 million IU every day by injection), a dose that may require adjustment for tolerance in some patients. […]

HIV infection = assay: Clinical evaluation for treating HIV infection; assay type: in vivo, human; conditions: 250, 500 or 750 mg/day oral about six months, with AZT, ddI and indinavir
Protocol: Patients with HIV infection are treated once per day with gelatin capsules containing 250 mg gallium maltolate. Patients are divided randomly and blindly into approximately equal groups that receive either 0 (placebo), 250, 500, or 750 mg/day gallium maltolate for about six months, together with 300 mg AZT twice per day, 200 mg ddI twice per day, and 800 mg indinavir every eight hours. Patients are medically monitored for symptoms of HIV infection throughout the study. In addition, blood serum samples are obtained from the patients at days 0, 30, 90, and 180 and are assayed for CD4 T-cell count by routine methods and for HIV-1 RNA (viral load assay) using the Roche […] ultra-assay (Sun et al. (1998), “Ultrasensitive reverse transcription-PCR assay for quantitation of human immunodeficiency virus type 1 RNA in plasma,” J. Clin. Microbiol. 36(10):2964-2969).

[1] = in vivo, po; cited from earlier work
CMV = assay: Clinical evaluation for prevention of CMV disease in HIV patients: CMV; assay type: in vivo, human
Description: In this example, prevention of CMV disease rather than its treatment will be studied. Chemo-prevention by antivirals is preferred, rather than with immune stimulating agents such as interferons, because interferons require regular administration by injection. Foscarnet is an antiviral only for injection, but it is studied for comparison with oral antivirals. […] In addition to the methods used in Example 5 for evaluating the HIV disease, some of the methods employed in the following reference are used in the evaluation: Monkemuller et al. (2000), “Esophageal ulcer caused by cytomegalovirus: resolution during combination antiretroviral therapy for acquired immunodeficiency syndrome,” South Med. J. 93(8):8 18-20. Patients are treated once per day with gelatin capsules containing gallium maltolate. The population of patients with CMV (almost universal, seropositive or culture positive patients) and HIV infection are first divided into two subpopulations groups based on CD4+ counts (above 350/mm^3 and below 350/mm^3). The subpopulations are randomly and blindly divided into two groups each randomly subdivided into subgroups for a total of sixteen approximately equal subgroups that receive either 0 (placebo), 250, 500, or 750 mg/day gallium maltolate for about six months. All subgroups receive the identical regimen of non-gallium antiretroviral therapy as described in Example 5 (a HAART regime). The commonly used nucleoside analog for CMV is ganciclovir, with foscavir used in cases where ganciclovir is ineffective, and the combination used to treat refractory CMV retinitis and other conditions. Foscarnet must be infused slowly to avoid adverse reactions. […] Patients are monitored for HIV disease precisely as described in Example 5. Patients are also medically monitored for CMV disease, including testing and examination for medical symptoms of CMV disease, such as CMV retinitis, throughout the study. […]

[2] = Stability of the 3:1 complex in aqueous solutions at various pH by ultraviolet spectroscopy; assay type: physicochemical; conditions: 1.0×10^−2 M in water, 25° C.
Protocol: The pH was adjusted by adding either 1N HCl or 1N Na2CO3. The stability of the complex was determined using ultraviolet spectroscopy over the region 200-450 nm at 25° C. Several absorption peaks are observed in this range, including those at about 212-217 nm, 248 nm, 273 nm, 318 nm, and 385 nm. An isobesic point occurs over much of the pH range at about 290 nm. In the very dilute solutions (2.5×10^−6 M), the neutral 3:1 complex appears to be stable from about pH 4.5 to 9.5. For the less dilute solutions (1.0×10^−2 M), the determination was more difficult due to the very high absorbance.

transferrin (Tf) = biological target: T1, transferrin (Tf) (Homo sapiens, UniProt P02787); conditions: oral, versus intravenous gallium nitrate; cited from earlier work
T1 construct: host or cells: circulating (blood plasma) transferrin of the dosed subject
T1 sequence (P02787 20-698, species assumed): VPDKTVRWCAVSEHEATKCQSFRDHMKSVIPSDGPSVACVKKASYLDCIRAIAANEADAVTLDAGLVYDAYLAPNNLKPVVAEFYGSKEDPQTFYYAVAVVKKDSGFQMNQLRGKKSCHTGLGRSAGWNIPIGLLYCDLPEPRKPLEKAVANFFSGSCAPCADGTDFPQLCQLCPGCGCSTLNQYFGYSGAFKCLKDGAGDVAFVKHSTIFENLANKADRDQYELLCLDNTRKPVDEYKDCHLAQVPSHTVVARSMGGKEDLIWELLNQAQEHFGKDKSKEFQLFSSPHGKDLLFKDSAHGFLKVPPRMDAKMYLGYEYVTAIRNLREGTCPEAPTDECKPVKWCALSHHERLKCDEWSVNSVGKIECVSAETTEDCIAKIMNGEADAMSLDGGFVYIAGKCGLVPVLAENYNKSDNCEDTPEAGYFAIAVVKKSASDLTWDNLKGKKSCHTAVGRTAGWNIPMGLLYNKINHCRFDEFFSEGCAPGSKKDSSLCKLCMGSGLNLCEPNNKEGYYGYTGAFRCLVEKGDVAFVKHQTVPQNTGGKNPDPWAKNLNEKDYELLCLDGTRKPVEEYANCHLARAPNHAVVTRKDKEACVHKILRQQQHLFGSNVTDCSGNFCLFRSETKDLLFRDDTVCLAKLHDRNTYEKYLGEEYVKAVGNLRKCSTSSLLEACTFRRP

SMILES: Cc1occc(=O)c1[O-].Cc1occc(=O)c1[O-].Cc1occc(=O)c1[O-].[Ga+3] [gallium maltolate, tris(3-hydroxy-2-methyl-4H-pyran-4-onato)gallium]
- Efficacy in preventing herpesvirus neoplasia in combination (EBV and KSV; HIV infected patients on HAART, with foscarnet, interferon-alpha, ganciclovir): effective in combination with foscarnet, interferon and ganciclovir
- Prevention of opportunistic herpesvirus associated neoplasms (EBV and KSV; combined with foscarnet, ganciclovir and interferon, high CD4+ group): producing the best results
- Synergy in preventing herpesvirus neoplasia (EBV and KSV; with foscarnet, interferon and ganciclovir): synergistic with all
- Efficacy in treating HIV infection (HIV infection): effective for treating HIV infection
- Renotoxicity or nephrotoxicity [1]: no renotoxicity or nephrotoxicity has been observed
- Efficacy in preventing CMV disease in combination (CMV; HIV patients on HAART, with foscarnet or ganciclovir): effective in combination with either foscarnet or ganciclovir
- Prevention of CMV disease with only oral agents (CMV; gallium plus ganciclovir versus placebo plus ganciclovir): adequate and effecting better results than placebo plus ganciclovir
- Synergy in preventing CMV disease (CMV; with foscarnet or ganciclovir): synergistic with both
- Stability region (pH) [2]: very similar to that of the highly dilute solution, possibly slightly wider
- Tf binding of absorbed gallium and tissue distribution (transferrin (Tf)): higher Tf binding of absorbed gallium and therefore better tissue distribution than intravenous gallium nitrate
